Assay results reported in patent US12568972B2, “Pyridazinol compounds and derivatives, preparation methods, herbicidal compositions and applications thereof” (Qingdao Kingagroot Chemical Compound Co., Ltd., priority 2018, dated 2026).

How the values were obtained:
Experiment in all cases: Post-emergence test, weed control effect
Format in all cases: in vivo
Details in all cases: after 3 weeks
[1] = system: Amaranthus retroflexus
Source text: (§1) The activity level standard of harmful plant destruction (i.e. growth inhibition rate) is as follows: • Level 10: completely dead; • Level 9: above 90% growth inhibition rate; • Level 8: above 80% growth inhibition rate; • Level 7: above 70% growth inhibition rate; • Level 6: above 60% growth inhibition rate; • Level 5: above 50% growth inhibition rate; • Level 4: above 40% growth inhibition rate; • Level 3: above 30% growth inhibition rate; • Level 2: above 20% growth inhibition rate; • Level 1: below 20% growth inhibition rate; • Level 0: no effect.
(§2) The above described growth inhibition rates are fresh weight inhibition rates.
(§3) Experiment of post-emergence test: monocotyledonous and dicotyledonous weed seeds as well as main crop seeds (i.e., wheat, corn, rice, soybean, cotton, oilseed rape, millet and sorghum) were put into a plastic pot loaded with soil, then covered with 0.5-2 cm of soil, and the seeds were allowed to grow in good greenhouse environment. The test plants were treated at 2-3 leaf stage 2-3 weeks after sowing. The test compounds of the invention were dissolved in acetone respectively, then added with Tween-80 and diluted by a certain amount of water to give solutions with certain concentrations, and added with 80% vegetable oil methyl ester synergist at 1500 g/ha. The solution was sprayed to the plants with a sprayer. The plants were cultured for 3 weeks in the greenhouse.

[2] = system: Chenopodiaceae
Source text: as §1, §2, §3

[3] = system: Rorippa indica
Source text: as §1, §2, §3

[4] = system: Veronica polita
Source text: as §1, §2, §3

Cc1n[nH]c(C)c1-c1nnc(C(F)(F)F)cc1O [Compound 543]
10: weed control effect (activity level), Amaranthus retroflexus ([1]; Dose 3000 g/ha) | weed control effect (activity level), Chenopodiaceae ([2]; Dose 3000 g/ha) | weed control effect (activity level), Rorippa indica ([3]; Dose 3000 g/ha) | weed control effect (activity level), Veronica polita ([4]; Dose 3000 g/ha)

Oc1cc(C(F)(F)F)nnc1-c1ccc(OC(F)(F)F)cc1 [Compound 128]
10: weed control effect (activity level), Amaranthus retroflexus ([1]; dose 1000 g/ha) | weed control effect (activity level), Chenopodiaceae ([2]; dose 1000 g/ha) | weed control effect (activity level), Rorippa indica ([3]; dose 1000 g/ha) | weed control effect (activity level), Veronica polita ([4]; dose 1000 g/ha)

COc1ccc(F)cc1-c1nnc(C(F)(F)F)cc1O [Compound 60]
10: weed control effect (activity level), Amaranthus retroflexus ([1]; dose 1000 g/ha) | weed control effect (activity level), Chenopodiaceae ([2]; dose 1000 g/ha) | weed control effect (activity level), Rorippa indica ([3]; dose 1000 g/ha) | weed control effect (activity level), Veronica polita ([4]; dose 1000 g/ha)

Oc1cc(C(F)(F)F)nnc1-c1ccnn1CC(F)(F)F [Compound 831]
10: weed control effect (activity level), Amaranthus retroflexus ([1]; Dose 3000 g/ha) | weed control effect (activity level), Chenopodiaceae ([2]; Dose 3000 g/ha) | weed control effect (activity level), Rorippa indica ([3]; Dose 3000 g/ha) | weed control effect (activity level), Veronica polita ([4]; Dose 3000 g/ha)

CSc1cccc(-c2nnc(C(F)(F)F)cc2O)c1 [Compound 95]
10: weed control effect (activity level), Amaranthus retroflexus ([1]; dose 1000 g/ha) | weed control effect (activity level), Chenopodiaceae ([2]; dose 1000 g/ha) | weed control effect (activity level), Rorippa indica ([3]; dose 1000 g/ha) | weed control effect (activity level), Veronica polita ([4]; dose 1000 g/ha)

Oc1cc(C(F)(F)F)nnc1-c1cccnc1C(F)(F)F [Compound 976]
10: weed control effect (activity level), Amaranthus retroflexus ([1]; Dose 3000 g/ha) | weed control effect (activity level), Chenopodiaceae ([2]; Dose 3000 g/ha) | weed control effect (activity level), Rorippa indica ([3]; Dose 3000 g/ha) | weed control effect (activity level), Veronica polita ([4]; Dose 3000 g/ha)

CC(C)(C)SC(=O)Oc1cc(C(F)(F)F)nnc1-c1cc(Cl)ccc1Cl [Compound 1-47]
10: weed control effect, Amaranthus retroflexus (activity level) ([1]; Dose 3000 g/ha) | weed control effect, Chenopodiaceae (activity level) ([2]; Dose 3000 g/ha) | weed control effect, Rorippa indica (activity level) ([3]; Dose 3000 g/ha) | weed control effect, Veronica polita (activity level) ([4]; Dose 3000 g/ha)

CCOC(=O)CCCOc1cc(C(F)(F)F)nnc1-c1ccc(F)cc1 [Compound 1-207]
10: weed control effect, Amaranthus retroflexus (activity level) ([1]; Dose 3000 g/ha) | weed control effect, Chenopodiaceae (activity level) ([2]; Dose 3000 g/ha) | weed control effect, Rorippa indica (activity level) ([3]; Dose 3000 g/ha) | weed control effect, Veronica polita (activity level) ([4]; Dose 3000 g/ha)

CCOc1cnn(C)c1-c1nnc(C(F)(F)F)cc1O [Compound 812]
10: weed control effect (activity level), Amaranthus retroflexus ([1]; Dose 3000 g/ha) | weed control effect (activity level), Chenopodiaceae ([2]; Dose 3000 g/ha) | weed control effect (activity level), Rorippa indica ([3]; Dose 3000 g/ha) | weed control effect (activity level), Veronica polita ([4]; Dose 3000 g/ha)

CCCCCCCCC(=O)Oc1cc(C(F)(F)F)nnc1-c1cccc(Br)c1 [Compound 1-15]
10: weed control effect, Amaranthus retroflexus (activity level) ([1]; Dose 3000 g/ha) | weed control effect, Chenopodiaceae (activity level) ([2]; Dose 3000 g/ha) | weed control effect, Rorippa indica (activity level) ([3]; Dose 3000 g/ha) | weed control effect, Veronica polita (activity level) ([4]; Dose 3000 g/ha)

Oc1cc(CF)nnc1-c1cccnc1F [Compound 1076]
10: weed control effect (activity level), Amaranthus retroflexus ([1]; Dose 3000 g/ha) | weed control effect (activity level), Chenopodiaceae ([2]; Dose 3000 g/ha) | weed control effect (activity level), Rorippa indica ([3]; Dose 3000 g/ha) | weed control effect (activity level), Veronica polita ([4]; Dose 3000 g/ha)

Cc1cc(-c2nnc(C(F)(F)F)cc2O)ccc1Cl [Compound 72]
10: weed control effect (activity level), Amaranthus retroflexus ([1]; dose 1000 g/ha) | weed control effect (activity level), Chenopodiaceae ([2]; dose 1000 g/ha) | weed control effect (activity level), Rorippa indica ([3]; dose 1000 g/ha) | weed control effect (activity level), Veronica polita ([4]; dose 1000 g/ha)

Oc1cc(C(F)(F)F)nnc1-c1cc(OC(F)F)c(Cl)cc1Cl [Compound 165]
10: weed control effect (activity level), Amaranthus retroflexus ([1]; dose 2000 g/ha) | weed control effect (activity level), Chenopodiaceae ([2]; dose 2000 g/ha) | weed control effect (activity level), Rorippa indica ([3]; dose 2000 g/ha) | weed control effect (activity level), Veronica polita ([4]; dose 2000 g/ha)

Oc1cc(C(F)(F)F)nnc1-c1c(F)cccc1Br [Compound 47]
10: weed control effect (activity level), Amaranthus retroflexus ([1]; dose 1000 g/ha) | weed control effect (activity level), Chenopodiaceae ([2]; dose 1000 g/ha) | weed control effect (activity level), Rorippa indica ([3]; dose 1000 g/ha) | weed control effect (activity level), Veronica polita ([4]; dose 1000 g/ha)

Oc1cc(C(F)(F)F)nnc1-c1cnccc1I [Compound 972]
10: weed control effect (activity level), Amaranthus retroflexus ([1]; Dose 3000 g/ha) | weed control effect (activity level), Chenopodiaceae ([2]; Dose 3000 g/ha) | weed control effect (activity level), Rorippa indica ([3]; Dose 3000 g/ha) | weed control effect (activity level), Veronica polita ([4]; Dose 3000 g/ha)

COc1cc(Cl)c(COc2cc(C(F)(F)F)nnc2-c2ccc(F)cc2)cc1Cl [Compound 1-211]
10: weed control effect, Amaranthus retroflexus (activity level) ([1]; Dose 3000 g/ha) | weed control effect, Chenopodiaceae (activity level) ([2]; Dose 3000 g/ha) | weed control effect, Rorippa indica (activity level) ([3]; Dose 3000 g/ha) | weed control effect, Veronica polita (activity level) ([4]; Dose 3000 g/ha)

Oc1cc(C(F)(F)F)nnc1-c1cccc(F)c1F [Compound 766]
10: weed control effect (activity level), Amaranthus retroflexus ([1]; Dose 3000 g/ha) | weed control effect (activity level), Chenopodiaceae ([2]; Dose 3000 g/ha) | weed control effect (activity level), Rorippa indica ([3]; Dose 3000 g/ha) | weed control effect (activity level), Veronica polita ([4]; Dose 3000 g/ha)
